{"source": "patent EP3733277B1", "about": "“PATTERNED SUBSTRATE HAVING HYDROPHILIC AND HYDROPHOBIC AREAS” (Karlsruher Institut für Technologie (KIT), priority 2019, dated 2020)", "tested_on": "Jurkat cells", "test": "Dose-response of doxorubicin on Jurkat cells cultured on droplet microarrays (DMA) with different surfaces or in microtiter plates; viability by Calcein AM / Propidium Iodide staining", "type": "cell-based", "settings": "Homo sapiens", "method": "Jurkat cells were treated with anti-cancer drug doxorubicin on DMAs containing different surfaces and coatings ((1) non-polymer surface with gelatine coating, (2) non-polymer surface without coating, (3) polymer surface with gelatine coating, which is necessary for culturing of cells on polymer, but not on non-polymer surface). Cells were cultured in 100 nL droplets volume and 100 cells per droplet on 1 mm square hydrophilic spots. Cells were incubated with drug for 24 hours. Afterwards cells were stained with Calcein AM (stains live cells) and Propidium Iodide (stains dead cells) to estimate viability of cells. DMAs were imaged using Olympus IX microscope. Image analysis was performed in Imaged software.\nIC50 values were calculated in Origin software by fitting the dose-response curves shown in (a)."}
{"molecule": "COc1cccc2c1C(=O)c1c(O)c3c(c(O)c1C2=O)C[C@@](O)(C(=O)CO)C[C@@H]3O[C@H]1C[C@H](N)[C@H](O)[C@H](C)O1", "note": "[doxorubicin]", "values": [{"measurement": "IC50", "setting": "24 h, Surface: Non-polymer DMA (without coating), 100 nL droplets, 100 cells per droplet, 24 hours", "result": 0.19, "unit": "µM"}, {"measurement": "IC50", "setting": "24 h, Surface: Non-polymer DMA / gelatin, 100 nL droplets, 100 cells per droplet, 24 hours", "result": 35.2, "unit": "µM"}, {"measurement": "IC50", "setting": "24 h, Surface: Polymer DMA / gelatin (HEMA-EDMA polymer), 100 nL droplets, 100 cells per droplet, 24 hours", "result": 203, "unit": "µM"}, {"measurement": "IC50", "setting": "Surface: Microtiter plate", "result": 0.2, "unit": "µM"}]}
